US11952365B2, “Anti-viral compounds” (Aligos Therapeutics, Inc., priority 2020, dated 2024)
Read-outs that look alike come from different tables or passages of the source.

How the values were obtained:
[1] = molecular target: HRV3C (Human rhinovirus 14, UniProt P03303); assay: HRV3C protease assay (duplex, SAMDI-MS); format: biochemical, HRV
Outline: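 HRV3C was preincubated 30 min with compound alongside 3CLpro at ambient temperature, then two biotinylated peptide substrates were added for 30 min. Quenching used 0.5% formic acid (final). Cleaved product was captured on neutravidin SAMDI arrays and quantified by MALDI-TOF as product/internal-standard AUC ratio; IC50 from four-parameter fit.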

[2] = test system: SARS-CoV-2-GHB-03021/2020; assay: microbe, parasite or virus in culture; format: cell-based; conditions: Severe acute respiratory syndrome coronavirus 2, Vero C1008, 96 h; read-out: VeroE6 + CP (EC50)
[3] = in vitro; conditions: African green monkey, VeroE6 + CP (CC50), Vero E6-eGFP cells with CP-100356, absence of virus, MTS
[4] = Cytotoxicity plates without OC43 virus (cell-titer-glo); format: cell-based, human; conditions: human; HeLa cells without OC43 virus, class symbols
Outline: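 Run as a virus-free counterpart of the OC43 cytopathic-effect assay. Attached HeLa cells received compound dilutions in EMEM with 2% FBS and were kept 6 days at 33 °C. Cell viability was then measured by CellTiter-Glo luminescence.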

[5] = test system: human beta-coronavirus OC43; assay: microbe, parasite or virus in culture; format: cell-based; conditions: Betacoronavirus 1, OC43, HeLa, 144 h, OC43 in HeLa cells, 6 days at 33° C., class symbols; read-out: EC50
[6] = molecular target: T1, human cathepsin L (Homo sapiens, UniProt P07711); assay: cathepsin L assay; format: biochemical; conditions: 10 pM human cathepsin L, Z-FR-AMC 2 μM, class symbols
T1 construct: purchased R&D Systems
Outline: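 Reactions began by adding 2 μM (final) Z-FR-AMC substrate to 10 pM human cathepsin L that had been preincubated 30 min with inhibitor. Kinetic AMC fluorescence at 355/460 nm over 30 min at 2-min intervals; four-parameter fitting gave IC50 values.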

[7] = test system: SARS-CoV-2-GHB-03021/2020; assay: SARS-CoV-2 Infection Model in Huh7 Cells; format: cell-based; conditions: Severe acute respiratory syndrome coronavirus 2, Huh-7, 96 h, SARS-CoV-2, day 4 p.i., MTS
[8] = in vitro; conditions: human
[9] = molecular target: 3CLpro (Severe acute respiratory syndrome coronavirus 2, UniProt P0DTD1); assay: SARS-CoV-2 3CLpro protease assay (duplex, SAMDI-MS); format: biochemical; parameters: For the duplex assay, 3CLpro and HRV3C was added; conditions: 3CLpro, 30 mins preincubation, class symbols; read-out: SARS-Cov-2 IC50
[10] = HRV3C, 30 mins preincubation, bound, read-out: HRV IC50
[11] = HRV3C, 30 mins preincubation, class symbols, read-out: HRV IC50
[12] = HRV IC50, HRV3C, 30 mins preincubation, class symbols

For `COc1cccc2[nH]c(C(=O)N3C[C@H]4[C@@H]([C@H]3C(=O)N[C@@H](C[C@@H]3CCCNC3=O)C(=O)COCc3ccccc3)C4(C)C)cc12` [Compound 49A, (1R,2S,5S)—N-[(2S)-4-(benzyloxy)-3-oxo-1-[(3S)-2-oxopiperidin-3-yl]butan-2-yl]-3-(4-methoxy-1H-indole-2-carbonyl)-6,6-dimethyl-3-azabicyclo[3.1.0]hexane-2-carboxamide], the IC50 [1, 10] was greater than 10 µM, the EC50 [2] was 1 to 10 µM and the CC50 ([3]; class symbols) was greater than 10 µM. It also gave a CC50 at 6 days [4] greater than 10 µM, an EC50 [5] of 0.1 to 1 µM and an IC50 [6] of no less than 10 µM. For the same compound, the EC50 ([7]; class symbols) was 1 to 10 µM, the CC50 [8] was greater than 10 µM and the IC50 [9] was 0.02 to 0.2 µM.

`COc1cccc2[nH]c(C(=O)N3C[C@@H]4CCC[C@@H]4[C@H]3C(=O)N[C@@H](C[C@@H]3CCNC3=O)C(=O)c3nc4ccccc4s3)cc12` [Compound 50, (1S,3aR,6aS)—N-[(2S)-1-(1,3-benzothiazol-2-yl)-1-oxo-3-[(3S)-2-oxopyrrolidin-3-yl]propan-2-yl]-2-(4-methoxy-1H-indole-2-carbonyl)-hexahydro-1H-cyclopenta[c]pyrrole-1-carboxamide] showed an IC50 [1, 10] greater than 10 µM, an EC50 [2] of 1 to 10 µM and a CC50 ([3]; numeric bounds) greater than 100 µM. For the same compound, the CC50 at 6 days [4] was greater than 10 µM, the EC50 [5] was 0.1 to 1 µM and the IC50 [6] was no less than 10 µM. It also gave an EC50 ([7]; class symbols) of 1 to 10 µM, a CC50 [8] greater than 10 µM and an IC50 [9] of 0.02 to 0.2 µM.

With `COc1cccc2[nH]c(C(=O)N3C[C@H]4[C@@H]([C@H]3C(=O)N[C@@H](C[C@@H]3CCNC3=O)C(=O)C(N)=O)C4(C)C)cc12` [Compound 51, (3S)-3-{[(1R,2S,5S)-3-(4-methoxy-1H-indole-2-carbonyl)-6,6-dimethyl-3-azabicyclo[3.1.0]hexan-2-yl]formamido}-2-oxo-4-[(3S)-2-oxopyrrolidin-3-yl]butanamide] the IC50 [1, 11] was 0.2 to 2 µM, the EC50 [2] was greater than 100 µM and the CC50 ([3]; numeric bounds) was greater than 100 µM. It also gave a CC50 at 6 days [4] greater than 10 µM, an EC50 [5] of 1 to 10 µM and an IC50 [6] of 0.1 to 1 µM. The EC50 ([7]; numeric bounds) was greater than 100 µM, the CC50 [8] was greater than 100 µM and the IC50 [9] was less than 0.02 µM.

`COc1cccc2[nH]c(C(=O)N3C[C@@H]4CCC[C@@H]4[C@H]3C(=O)NC(C[C@@H]3CCNC3=O)C(=O)C(=O)NC3CC3)cc12` (stereo partly drawn) [Compound 52, 3-{[(1S,3aR,6aS)-2-(4-methoxy-1H-indole-2-carbonyl)-hexahydro-1H-cyclopenta[c]pyrrol-1-yl]formamido}-N-cyclopropyl-2-oxo-4-[(3S)-2-oxopyrrolidin-3-yl]butanamide] showed an IC50 [1, 11] of 0.2 to 2 µM, an EC50 [2] of 1 to 10 µM and a CC50 ([3]; numeric bounds) greater than 100 µM. The CC50 at 6 days [4] was greater than 10 µM, the EC50 [5] was 1 to 10 µM and the IC50 [6] was no less than 10 µM. The EC50 ([7]; class symbols) was 10 to 100 µM, the CC50 [8] was greater than 100 µM and the IC50 [9] was less than 0.02 µM.

Compound `COc1cccc2[nH]c(C(=O)N3C[C@@H]4CCC[C@@H]4[C@H]3C(=O)N[C@@H](C[C@@H]3CCCNC3=O)C(O)S(=O)(=O)O)cc12` (stereo partly drawn) [Compound 53, sodium (2S)-2-{[(1S,3aR,6aS)-2-(4-methoxy-1H-indole-2-carbonyl)-hexahydro-1H-cyclopenta[c]pyrrol-1-yl]formamido}-1-hydroxy-3-[(3S)-2-oxopiperidin-3-yl]propane-1-sulfonate] has an IC50 [1, 12] of 0.02 to 0.2 µM, an EC50 [2] of 1 to 10 µM and a CC50 ([3]; numeric bounds) greater than 100 µM. It also gave a CC50 at 6 days [4] greater than 10 µM, an EC50 [5] of 0.1 to 1 µM and an IC50 [6] of no less than 10 µM. It also gave an EC50 ([7]; class symbols) of less than 1 µM, a CC50 [8] greater than 100 µM and an IC50 [9] of less than 0.02 µM.

`COc1cccc2[nH]c(C(=O)N3C[C@@H]4CCC[C@@H]4[C@H]3C(=O)N[C@@H](C[C@@H]3CCNC3=O)C(=O)c3ncc[nH]3)cc12` [Compound 54, (1S,3aR,6aS)—N-[(2S)-1-(1H-imidazol-2-yl)-1-oxo-3-[(3S)-2-oxopyrrolidin-3-yl]propan-2-yl]-2-(4-methoxy-1H-indole-2-carbonyl)-hexahydro-1H-cyclopenta[c]pyrrole-1-carboxamide] showed an IC50 ([1]; HRV3C, printed bound without unit, read-out: HRV IC50) greater than 10 µM, an EC50 [2] greater than 100 µM and a CC50 ([3]; numeric bounds) greater than 100 µM. The CC50 at 6 days [4] was greater than 10 µM, the EC50 [5] was 10 to 100 µM and the IC50 [6] was no less than 10 µM. It also gave an EC50 ([7]; numeric bounds) greater than 100 µM, a CC50 [8] greater than 100 µM and an IC50 [9] of 2 to 20 µM.

Work on `COc1cccc2[nH]c(C(=O)N3C[C@@H]4CCC[C@@H]4[C@H]3C(=O)NC(C[C@@H]3CCCNC3=O)C(=O)C(=O)NC3CC3)cc12` (stereo partly drawn) [Compound 55, 3-{[(1S,3aR,6aS)-2-(4-methoxy-1H-indole-2-carbonyl)-hexahydro-1H-cyclopenta[c]pyrrol-1-yl]formamido}-N-cyclopropyl-2-oxo-4-[(3S)-2-oxopiperidin-3-yl]butanamide] yielded an IC50 [1, 11] of 0.02 to 0.2 µM, an EC50 [2] of 1 to 10 µM and a CC50 ([3]; numeric bounds) greater than 100 µM. The CC50 at 6 days [4] was greater than 10 µM, the EC50 [5] was 0.1 to 1 µM and the IC50 [6] was no less than 10 µM. For the same compound, the EC50 ([7]; class symbols) was 1 to 10 µM, the CC50 [8] was greater than 100 µM and the IC50 [9] was less than 0.02 µM.

For `O=C1NCCC[C@H]1C[C@H](NC(=O)[C@@H]1[C@H]2CCC[C@H]2CN1C(=O)c1cc2ccccc2[nH]1)C(O)S(=O)(=O)O` (stereo partly drawn) [Compound 58, sodium (2S)-2-{[(1S,3aR,6aS)-2-(1H-indole-2-carbonyl)-hexahydro-1H-cyclopenta[c]pyrrol-1-yl]formamido}-1-hydroxy-3-[(3S)-2-oxopiperidin-3-yl]propane-1-sulfonate], the IC50 [1, 12] was 0.02 to 0.2 µM, the EC50 [2] was less than 1 µM and the CC50 ([3]; numeric bounds) was greater than 100 µM. It also gave a CC50 at 6 days [4] greater than 10 µM, an EC50 [5] of 0.1 to 1 µM and an IC50 [6] of 1 to 10 µM. The EC50 ([7]; class symbols) was less than 1 µM, the CC50 [8] was greater than 100 µM and the IC50 [9] was less than 0.02 µM.

Compound `O=C1NCC[C@H]1C[C@H](NC(=O)[C@@H]1[C@H]2CCC[C@H]2CN1C(=O)c1cc2c(Cl)cccc2[nH]1)C(=O)CO` [Compound 60, (1S,3aR,6aS)-2-(4-chloro-1H-indole-2-carbonyl)-N-[(2S)-4-hydroxy-3-oxo-1-[(3S)-2-oxopyrrolidin-3-yl]butan-2-yl]-hexahydro-1H-cyclopenta[c]pyrrole-1-carboxamide] has an IC50 [1, 10] greater than 10 µM, an EC50 [2] of less than 1 µM and a CC50 ([3]; class symbols) greater than 10 µM. The CC50 at 6 days [4] was greater than 10 µM, the EC50 [5] was less than 0.1 µM and the IC50 [6] was no less than 10 µM. For the same compound, the EC50 ([7]; class symbols) was less than 1 µM, the CC50 [8] was greater than 100 µM and the IC50 [9] was less than 0.02 µM.

With `O=C1NCC[C@H]1C[C@H](NC(=O)[C@@H]1[C@H]2CCC[C@H]2CN1C(=O)c1cc2c(Cl)cccc2[nH]1)C(=O)COCc1ccccc1` [Compound 60A, (1S,3aR,6aS)—N-[(2S)-4-(benzyloxy)-3-oxo-1-[(3S)-2-oxopyrrolidin-3-yl]butan-2-yl]-2-(4-chloro-1H-indole-2-carbonyl)-hexahydro-1H-cyclopenta[c]pyrrole-1-carboxamide] the IC50 [1, 10] was greater than 10 µM, the EC50 [2] was 1 to 10 µM and the CC50 ([3]; numeric bounds) was greater than 100 µM. It also gave a CC50 at 6 days [4] greater than 10 µM, an EC50 [5] of less than 0.1 µM and an IC50 [6] of no less than 10 µM. The EC50 ([7]; class symbols) was 1 to 10 µM, the CC50 [8] was 1 to 10 µM and the IC50 [9] was 0.2 to 2 µM.

In the case of `COc1cccc2[nH]c(C(=O)N3C[C@@H]4CCC[C@@H]4[C@H]3C(=O)N[C@@H](C[C@@H]3CCNC3=O)C(=O)COP(=O)(O)O)cc12` [Compound 61, (3S)-3-1{[(1S,3aR,6aS)-2-(4-methoxy-1H-indole-2-carbonyl)-hexahydro-1H-cyclopenta[c]pyrrol-1-yl]formamido}-2-oxo-4-[(3S)-2-oxopyrrolidin-3-yl]butoxyphosphonic acid], the IC50 [1, 10] is reported as greater than 10 µM, the EC50 [2] is reported as 1 to 10 µM and the CC50 ([3]; numeric bounds) is reported as greater than 100 µM. It also gave a CC50 at 6 days [4] greater than 10 µM, an EC50 [5] of 0.1 to 1 µM and an IC50 [6] of no less than 10 µM. For the same compound, the EC50 ([7]; class symbols) was 1 to 10 µM, the CC50 [8] was greater than 100 µM and the IC50 [9] was 0.2 to 2 µM.

`COc1cccc2[nH]c(C(=O)N3C[C@@H]4CCC[C@@H]4[C@H]3C(=O)NC(C[C@@H]3CCNC3=O)C(=O)C(C)O)cc12` (stereo partly drawn) [Compound 62, (1S,3aR,6aS)—N-(4-hydroxy-3-oxo-1-((S)-2-oxopyrrolidin-3-yl)pentan-2-yl)-2-(4-methoxy-1H-indole-2-carbonyl)octahydrocyclopenta[c]pyrrole-1-carboxamide] showed an IC50 [1, 10] greater than 10 µM, an EC50 [2] of 10 to 100 µM and a CC50 ([3]; class symbols) greater than 10 µM. For the same compound, the CC50 at 6 days [4] was greater than 10 µM, the EC50 [5] was 1 to 10 µM and the IC50 [6] was no less than 10 µM. The EC50 ([7]; class symbols) was 10 to 100 µM, the CC50 [8] was greater than 100 µM and the IC50 [9] was 0.2 to 2 µM.
